Like-named read-outs stand apart in the source and are kept apart here. Positions of bridges follow the written chain, without caps; N, C: chain ends. Non-standard residues stand in square brackets, D forms with d. Residues, ends and D or L forms follow the SMILES beside them. ξ: configuration not given here. PEG12 = NCCOCCOCCOCCOCCOCCOCCOCCOCCOCCOCCOCCOCCC(=O)O; Phe(4-Cl) = N[C@@H](Cc1ccc(Cl)cc1)C(=O)O; Bta = N[C@@H](Cc1csc2ccccc12)C(=O)O; Hyp = O=C(O)[C@@H]1C[C@@H](O)CN1; NMeF = CN[C@@H](Cc1ccccc1)C(=O)O; dHyp = O=C(O)[C@H]1C[C@H](O)CN1; NMeNle = CCCC[C@H](NC)C(=O)O; NMeM = CN[C@@H](CCSC)C(=O)O; NMeA = CN[C@@H](C)C(=O)O; Orn = NCCC[C@H](N)C(=O)O; Dap = NC[C@H](N)C(=O)O; ξC = NC(CS)C(=O)O; Sar = CNCC(=O)O
Key:
[1] = biological target: T1, Human PD-L1/PD-1 (Homo sapiens, UniProt Q9NZQ7); assay: HTRF PD-1-Ig/PD-L1-His binding assay (human PD-L1)
T1 construct: made in house; host or cells: HEK293T
T1 sequence (Q9NZQ7 with tags, fused parts or gaps): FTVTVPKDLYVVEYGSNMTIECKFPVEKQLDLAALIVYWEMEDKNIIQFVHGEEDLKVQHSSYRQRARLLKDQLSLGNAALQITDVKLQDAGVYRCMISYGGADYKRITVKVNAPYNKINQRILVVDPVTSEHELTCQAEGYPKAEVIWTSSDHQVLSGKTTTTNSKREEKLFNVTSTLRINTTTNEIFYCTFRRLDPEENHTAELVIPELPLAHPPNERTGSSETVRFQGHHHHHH
Text: The ability of the macrocyclic peptides of the present disclosure to bind to PD-L1 was investigated using a PD-1/PD-L1 Homogenous Time-Resolved Fluorescence (HTRF) binding assay.
Homogenous Time-Resolved Fluorescence (HTRF) Assays of Binding of Soluble PD-1 to Soluble PD-L1. Soluble PD-1 and soluble PD-L1 refers to proteins with carboxyl-end truncations that remove the transmembrane-spanning regions and are fused to heterologous sequences, specifically the Fc portion of the human immunoglobuling G sequence (Ig) or the hexahistidine epitope tag (His). All binding studies were performed in an HTRF assay buffer consisting of dPBS supplemented with 0.1% (w/v) bovine serum albumin and 0.05% (v/v) Tween-20. […] PD-L1 fusion proteins from either human, cynomologous macaques, or mouse were used. HTRF detection was achieved using europium crypate-labeled anti-Ig monoclonal antibody (1 nM final) and allophycocyanin (APC) labeled anti-His monoclonal antibody (20 nM final). Antibodies were diluted in HTRF detection buffer and 5 μl was dispensed on top of binding reaction.

[2] = biological target: T2, LK35.2-hPD-L1 cells / PE-labeled PD-1-Ig (Homo sapiens, UniProt Q9NZQ7); assay: LK35.2-hPD-L1 cell binding high-content screening assay; assay type: cell-based; conditions: cell binding assay, cell line not given; cluster symbol; read-out: CBA IC50 cluster
T2 construct: expressed in transfected cells; host or cells: LK35.2 mouse B cell line
T2 sequence (Q9NZQ7 19-290): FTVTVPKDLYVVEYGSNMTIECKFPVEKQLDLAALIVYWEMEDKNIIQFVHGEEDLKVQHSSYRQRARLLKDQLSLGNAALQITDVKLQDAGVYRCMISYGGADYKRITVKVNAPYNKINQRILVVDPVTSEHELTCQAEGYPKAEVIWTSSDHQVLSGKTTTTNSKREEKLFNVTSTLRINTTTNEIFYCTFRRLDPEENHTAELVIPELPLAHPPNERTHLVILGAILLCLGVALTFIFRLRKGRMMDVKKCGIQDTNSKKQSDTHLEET
Method: LK35.2-hPD-L1 Cell Binding High-Content Screening Assay. Phycoerythrin (PE) was covalently linked to the Ig epitope tag of human PD-1-Ig and fluorescently-labeled PD-1-Ig was used for binding studies with a mouse B cell line (LK35.2) stably over-expressing human PD-L1 (LK35.2-hPD-L1). Briefly, 3×10^3 LK35.2-hPD-L1 cells were seeded into 384 well plates in 20 ul of RPMI supplemented with 10% fetal calf serum and cultured overnight. 125 nl of compound was added to cells, followed by 5 ul of PE-labeled PD-1-Ig (1 nM final), diluted in RPMI supplemented with 10% fetal calf serum, followed by incubation at 37° C. for 1 h. […] Cells were washed 3× in 100 ul of dPBS followed by final addition of 15 ul of dPBS. Data was collected and processed using a Cell Insight NXT High Content Imager and associated software.

[3] = Table 9, Compound No. 71 variant macrocyclic peptides, read-out: HTRF Human PD-L1/PD-1 Binding Assay IC50
[4] = Table 7, Compound No. 99 variant macrocyclic peptides, read-out: HTRF Human PD-L1/PD-1 Binding Assay IC50
[5] = Table 10, Compound No. 116 variant macrocyclic peptides, read-out: HTRF Human PD-L1/PD-1 Binding Assay IC50

Compound `CCCC[C@H]1C(=O)N(C)CC(=O)N[C@@H](CC(=O)O)C(=O)N[C@@H](C(C)C)C(=O)N[C@@H](Cc2ccccc2)C(=O)N[C@@H](Cc2ccc(O)cc2)C(=O)N(C)CC(=O)N[C@@H](Cc2c[nH]c3ccccc23)C(=O)N[C@@H](Cc2ccc(O)cc2)C(=O)N[C@@H](CC(C)C)C(=O)N[C@H](C(=O)NCC(N)=O)CSCC(=O)N[C@@H](Cc2ccccc2)C(=O)N(C)[C@@H](Cc2ccccc2)C(=O)N1C` [Compound No. 82] (HELM PEPTIDE1{[O=C(C[*:3])[*:2]].F.[meF].[CCCC[C@@H](C(=O)[*:2])N(C)[*:1]].[Sar].D.V.F.Y.[Sar].W.Y.L.C.G.[am]}$PEPTIDE1,PEPTIDE1,1:R3-14:R3$$$V2.0) has an IC50 [1, 3] of 47 nM.
`CCCC[C@H]1C(=O)N(C)CC(=O)N[C@@H](CC(=O)O)C(=O)N[C@@H](C(C)C)C(=O)N(C)[C@@H](Cc2ccccc2)C(=O)N[C@@H](C)C(=O)N(C)CC(=O)N[C@@H](Cc2c[nH]c3ccccc23)C(=O)N[C@@H](Cc2ccc(O)cc2)C(=O)N[C@@H](CC(C)C)C(=O)N[C@H](C(=O)NCC(N)=O)CSCC(=O)N[C@@H](Cc2ccccc2)C(=O)N(C)[C@@H](Cc2ccccc2)C(=O)N1C` [Compound No. 83] (HELM PEPTIDE1{[O=C(C[*:3])[*:2]].F.[meF].[CCCC[C@@H](C(=O)[*:2])N(C)[*:1]].[Sar].D.V.[meF].A.[Sar].W.Y.L.C.G.[am]}$PEPTIDE1,PEPTIDE1,1:R3-14:R3$$$V2.0) was tested, and the IC50 [1, 3] was 35 nM.
In the case of `CC[C@H](C)[C@@H]1NC(=O)[C@H](C(C)C)NC(=O)[C@H]([C@@H](C)CC)NC(=O)[C@@H](Cc2ccccc2)NC(=O)[C@H](Cc2ccccc2)NC(=O)CSC[C@@H](C(=O)NCC(N)=O)NC(=O)[C@H](CCCNC(=N)N)NC(=O)[C@H](Cc2ccccc2)NC(=O)[C@H](C(C)C)NC(=O)[C@H](CCCNC(=N)N)NC(=O)[C@H](CC(=O)O)NC(=O)[C@H](CCCNC(=N)N)NC1=O` [Compound No. 102] (HELM PEPTIDE1{[O=C(C[*:3])[*:2]].F.[dF].I.V.I.R.D.R.V.F.R.C.G.[am]}$PEPTIDE1,PEPTIDE1,1:R3-13:R3$$$V2.0), the IC50 [1, 4] is reported as > 20000 nM.
`CC[C@H](C)[C@@H]1NC(=O)[C@H](CC(C)C)NC(=O)[C@H](Cc2ccccc2)NC(=O)CSC[C@@H](C(=O)NCC(N)=O)NC(=O)[C@H](CCCNC(=N)N)NC(=O)[C@H](Cc2ccccc2)NC(=O)[C@H](C(C)C)NC(=O)[C@H](CCCNC(=N)N)NC(=O)[C@H](CC(=O)O)NC(=O)[C@H](CC(C)C)NC(=O)[C@H]([C@@H](C)CC)NC(=O)[C@H](C(C)C)NC1=O` [Compound No. 109] (HELM PEPTIDE1{[O=C(C[*:3])[*:2]].F.L.I.V.I.L.D.R.V.F.R.C.G.[am]}$PEPTIDE1,PEPTIDE1,1:R3-13:R3$$$V2.0) was tested, and the IC50 [1, 4] was > 20000 nM.
With `CCCC[C@H]1C(=O)N(C)[C@@H](CCCC)C(=O)N[C@@H](CCCNC(=N)N)C(=O)N[C@H](C(=O)NCC(=O)NCCOCCOCCOCCOCCOCCOCCOCCOCCOCCOCCOCCOCCC(N)=O)CSCC(=O)N[C@@H](Cc2ccccc2)C(=O)N(C)[C@@H](C)C(=O)N[C@@H](CC(N)=O)C(=O)N2CCC[C@H]2C(=O)N[C@@H](Cc2cnc[nH]2)C(=O)N[C@@H](CC(C)C)C(=O)N(C)CC(=O)N[C@@H](Cc2c[nH]c3ccccc23)C(=O)N[C@@H](CO)C(=O)N[C@@H](Cc2c[nH]c3ccccc23)C(=O)N1C` [Compound No. 116] ({CH2CO}-F[NMeA]NPHL[Sar]WSW[NMeNle][NMeNle]RCG[PEG12]-NH2; thioether N-14) the IC50 [1, 5] was 21 nM.
With `CCCC[C@H]1C(=O)N(C)[C@@H](CCCC)C(=O)N[C@@H](CC(C)C)C(=O)N[C@H](C(=O)NCC(=O)NCCOCCOCCOCCOCCOCCOCCOCCOCCOCCOCCOCCOCCC(N)=O)CSCC(=O)N[C@@H](Cc2ccccc2)C(=O)N(C)[C@@H](C)C(=O)N[C@@H](CC(N)=O)C(=O)N2CCC[C@H]2C(=O)N[C@@H](Cc2cnc[nH]2)C(=O)N[C@@H](Cc2cnc[nH]2)C(=O)N[C@@H](CO)C(=O)N[C@@H](Cc2c[nH]c3ccccc23)C(=O)N[C@@H](CCCNC(=N)N)C(=O)N[C@@H](Cc2c[nH]c3ccccc23)C(=O)N1C` [Compound No. 117] ({CH2CO}-F[NMeA]NPHHSWRW[NMeNle][NMeNle]LCG[PEG12]-NH2; thioether N-14) the IC50 [1, 5] was 21 nM.
`CCCC[C@H]1C(=O)N(C)CC(=O)N[C@@H](CC(=O)O)C(=O)N[C@@H](C(C)C)C(=O)N(C)[C@@H](Cc2ccccc2)C(=O)N[C@@H](Cc2ccc(O)cc2)C(=O)N(C)CC(=O)N[C@@H](Cc2c[nH]c3ccccc23)C(=O)N[C@@H](Cc2ccc(O)cc2)C(=O)N[C@@H](CC(C)C)C(=O)N[C@H](C(=O)NCC(=O)NCCOCCOCCOCCOCCOCCOCCOCCOCCOCCOCCOCCOCCC(N)=O)CSCC(=O)N[C@@H](Cc2ccccc2)C(=O)N(C)[C@@H](Cc2ccccc2)C(=O)N1C` [Compound No. 118] ({CH2CO}-F[NMeF][NMeNle][Sar]DV[NMeF]Y[Sar]WYLCG[PEG12]-NH2; thioether N-13) showed an IC50 [1, 5] of 3 nM.
With `CCCC[C@H]1C(=O)N(C)[C@@H](CCCC)C(=O)N[C@@H](CCCNC(=N)N)C(=O)N[C@H](C(=O)NCC(N)=O)CSCC(=O)N[C@@H](Cc2ccc(Cl)cc2)C(=O)N(C)[C@@H](C)C(=O)N[C@@H](CC(N)=O)C(=O)N2CCC[C@H]2C(=O)N[C@@H](Cc2cnc[nH]2)C(=O)N[C@@H](CC(C)C)C(=O)N2C[C@H](O)C[C@H]2C(=O)N[C@@H](Cc2c[nH]c3ccccc23)C(=O)N[C@@H](CO)C(=O)N[C@@H](Cc2csc3ccccc23)C(=O)N1C` [Example 1125] ({CH2CO}-[Phe(4-Cl)][NMeA]NPHL[Hyp]WS[Bta][NMeNle][NMeNle]RCG-NH2; thioether N-14) the IC50 ([1]; read-out: HTRF IC50 value) was 5.05 nM.
`CCCC[C@H]1C(=O)N(C)[C@@H](CCCC)C(=O)N[C@@H](CCCN)C(=O)N[C@H](C(=O)NCC(N)=O)CSCC(=O)N[C@@H](Cc2ccc(O)cc2)C(=O)N2CCC[C@H]2C(=O)N[C@@H](CC(N)=O)C(=O)N2CCC[C@H]2C(=O)N[C@@H](Cc2cnc[nH]2)C(=O)N[C@@H](CC(C)C)C(=O)N2C[C@H](O)C[C@H]2C(=O)N[C@@H](Cc2c[nH]c3ccccc23)C(=O)N[C@@H](CO)C(=O)N[C@@H](Cc2c[nH]c3ccccc23)C(=O)N1C` [Example 1173] ({CH2CO}-YPNPHL[Hyp]WSW[NMeNle][NMeNle][Orn]CG-NH2; thioether N-14) gave an IC50 ([1]; read-out: HTRF IC50 value) of 2.71 nM.
`CCCC[C@H]1C(=O)N(C)CC(=O)N[C@@H](CC(=O)O)C(=O)N[C@@H](C(C)C)C(=O)N(C)[C@@H](Cc2ccccc2)C(=O)N[C@@H](Cc2ccc(O)cc2)C(=O)N(C)CC(=O)N[C@@H](Cc2c[nH]c3ccccc23)C(=O)N[C@@H](Cc2ccc(O)cc2)C(=O)N[C@@H](CC(C)C)C(=O)N[C@H](C(=O)NCC(N)=O)CSCC(=O)N[C@@H](Cc2ccccc2)C(=O)N(C)[C@@H](Cc2cnc[nH]2)C(=O)N1C` [Example 3056-B] (HELM PEPTIDE1{[O=C(C[*:3])[*:2]].F.[meH].[CCCC[C@@H](C(=O)[*:2])N(C)[*:1]].[Sar].D.V.[meF].Y.[Sar].W.Y.L.C.G.[am]}$PEPTIDE1,PEPTIDE1,1:R3-14:R3$$$V2.0) showed an IC50 ([1]; cluster symbol, read-out: HTRF IC50 cluster) of 6.76 to 30.3 nM.
Work on `CCCC[C@H]1C(=O)N(C)CC(=O)N[C@@H](CC(=O)O)C(=O)N[C@@H](C(C)C)C(=O)N(C)[C@@H](Cc2ccccc2)C(=O)N[C@@H](Cc2ccc(O)cc2)C(=O)N2C[C@@H](O)C[C@@H]2C(=O)N[C@@H](Cc2c[nH]c3ccccc23)C(=O)N[C@@H](Cc2ccc(O)cc2)C(=O)N[C@@H](CC(C)C)C(=O)N[C@H](C(=O)NCC(N)=O)CSCC(=O)N[C@@H](Cc2ccccc2)C(=O)N(C)[C@@H](Cc2ccccc2)C(=O)N1C` [Example 3583] ({CH2CO}-F[NMeF][NMeNle][Sar]DV[NMeF]Y[dHyp]WYLCG-NH2; thioether N-13) yielded an IC50 [2] of 0.158 to 4.71 nM.
Work on `CCCC[C@H]1C(=O)N[C@@H](CCCNC(=N)N)C(=O)NC(C(=O)NCC(N)=O)CSCC(=O)N[C@@H](Cc2ccc(O)cc2)C(=O)N(C)[C@@H](C)C(=O)N[C@@H](CC(N)=O)C(=O)N2CCC[C@H]2C(=O)N[C@@H](CN)C(=O)N[C@@H](CC(C)C)C(=O)N2CCC[C@H]2C(=O)N[C@@H](Cc2c[nH]c3ccccc23)C(=O)N[C@@H](CO)C(=O)N[C@@H](Cc2c[nH]c3ccccc23)C(=O)N(C)[C@@H](CCSC)C(=O)N1C` (stereo partly drawn) [Example 9097] ({CH2CO}-Y[NMeA]NP[Dap]LPWSW[NMeM][NMeNle]R[ξC]G-NH2; thioether N-14) yielded an IC50 [2] of 4.78 to 72.9 nM.
